Measured values published in patent US20040138272A1, “1,4-Substituted cyclohexane derivatives” (priority 2002, published 2004).
Entries after “also recorded” stand apart in the source; their conditions may differ.

Experiments:
[1] = target: glycogen synthatase kinase 3 beta (GSKB) (Homo sapiens, UniProt P49841); experiment: GSK B kinase activity of compounds (FIG. 10); format: biochemical; conditions: 10 uM
[2] = target: T1, human Rho kinase II (ROCK-II (h)) (Homo sapiens, UniProt O75116); experiment: Commercial inhibition assay with recombinant human ROCKII, IC50 curves (FIGS. 8, 9); format: biochemical
T1 construct: purchased
Source text: Referring to FIGS. 8 and 9 inhibiton of ROCKII activity and determination of IC50 may also be done throught the use of known (i.e. commercial) inhibition assays that use recombinant human ROCKII.

[3] = test system: HEC-1B human adnocarcinoma; experiment: Thymidine uptake anti-proliferation assay, HEC-1B; format: cell-based; conditions: 100 uM, versus DMSO and PBS controls; Dihydrochloride
Description: (§1) The antiproliferative effects of BA-1037 were tested by a thymidine uptake assay with several different human cancer cell lines grown in culture. The cell lines tested were HEC-1B human adnocarcinoma, SK-MEL-1 human malignant melanoma, and Caco-2 human colorectal adenocarcinoma. The cells were seeded in a 96 well plate and after 2 hours the cells were treated with test BA-1037 compound or with control solutions. The control solutions were PBS as a negative control, and with complete medium plus the DMSO vehicle (at 0.1% or 1%). BA-1037 was added at three different concentrations: 1 uM, 10, uM or 100 uM. Each control solution and test solution was plated in triplicate for each cell line. The plate was incubated at 37 C. with 5% CO2 in a humidified atmosphere for approximately 54 hours. A volume of 0.02 ml of 3H-methy thymidine which contained 1.0 uCi was added to each well. The culture was incubated a further 18 hours. Using an automated cell harvestor the cells from each well were aspirated onto a glass microfiber filter. The cells were broken with distilled water to leave mainly the DNA on the filter. Each filter was placed in a scintillation counter (TopCount NXT). At appropriate settings for the 3H, each filter was counted for one minute. The results are expressed as CPM (counts per minute).

[4] = test system: NG108-15 neuronal cell line; experiment: Rapid bioassay of neurite growth in NG108-15 cells; format: cell-based; conditions: 35 uM
Description: When neurons are placed on inhibitory substrates in tissue culture, the neurons remain rounded. When an effective Rho kinase inhibitor is added to the neurons, the neurons are able to grow neurites on myelin substrates. The time that it takes for neurons to grow neurites after the addition of a Rho kinase inhibitor is about the same as the time that it takes for neurons to grow neurites if the neurons had been plated on growth permissive substrate such as laminin or polylysine, which time is typically 1 to 2 days in cell culture. An assessment of resulting neurite growth can be scored by visual means. If needed, a quantitative assessment of neurite growth can be performed. This involves measuring after a time such as 1 to 2 days the neurite length a) in control cultures where neurons are plated on myelin substrates and left untreated with Rho kinase inhibitor for such time, b) in positive control cultures, wherein for example neurons are plated on polylysine but left untreated with Rho kinase inhibitor for such time, and c) in cultures analogous to a) and b) that are treated with different concentrations of a Rho kinase inhibitor for such time. […] In this assay, NG108 cells are plated on plastic in the presence or absence of the test substance (a Rho kinase inhibitor). […] The relative efficacy can be assessed by fixing the cultures 5 hours after plating, and counting the number of cells that have grown neurites.
A rapid bioassay is used to determine the effect of a test compounds on the stimulation of neurite growth in vitro. A neuronal cell line, NG108-15 (ATCC HB-12317), is maintained in culture in Dulbecco's minimal essential medium (DMEM) supplemented with 10% fetal bovine serum, Penicillin/Streptomycin and HAT supplement (Gibco/BRL). For the bioassay, the cells are collected by trypsinisation and ressuspended in DMEM supplemented with 5% FBS, Penicillin/Streptomycin, HAT supplement and 0.25 mg/ml cAMP, adjusted to 1.0×10^4 cells/ml. The cells are plated into wells of a 96 well plate at 100 μls (1000 cells)/well. Cells are incubated 4 h at 37° C. and 5% CO2 in presence of small molecules or cethrin at a concentration of 1000 cells per well of a 96-wells plate in a final volume of 100 ul.
After incubation, cells are fixed by adding […] 16% PFA and 5.4 μls 2.5% glutaraldehyde to the media in each well. The wells are stained with cresyl violet 0.05% , 100 μls/well for 15 min. Cells with neurites (length≧one cell body) are counted using an inverted light microscope. The % neurite outgrowth is determined by calculating the number of cells with neurites over the total number of counted cells.

[5] = test system: SK-MEL-1 human malignant melanoma; experiment: Thymidine uptake anti-proliferation assay, SK-MEL-1; format: cell-based
Description: as §1

glycogen synthatase kinase 3 beta (GSKB), sequence (P49841 whole entry): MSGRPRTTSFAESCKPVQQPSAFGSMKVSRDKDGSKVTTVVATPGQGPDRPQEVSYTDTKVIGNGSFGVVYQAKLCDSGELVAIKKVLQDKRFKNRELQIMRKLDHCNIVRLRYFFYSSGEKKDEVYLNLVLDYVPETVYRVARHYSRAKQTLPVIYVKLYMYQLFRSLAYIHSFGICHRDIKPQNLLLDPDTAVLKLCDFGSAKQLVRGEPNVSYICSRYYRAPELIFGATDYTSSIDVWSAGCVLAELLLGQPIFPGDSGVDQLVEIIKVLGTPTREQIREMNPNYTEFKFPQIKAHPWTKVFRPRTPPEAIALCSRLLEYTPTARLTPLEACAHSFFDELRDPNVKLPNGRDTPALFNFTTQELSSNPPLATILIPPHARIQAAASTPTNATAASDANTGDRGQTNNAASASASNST
T1 sequence (O75116 whole entry): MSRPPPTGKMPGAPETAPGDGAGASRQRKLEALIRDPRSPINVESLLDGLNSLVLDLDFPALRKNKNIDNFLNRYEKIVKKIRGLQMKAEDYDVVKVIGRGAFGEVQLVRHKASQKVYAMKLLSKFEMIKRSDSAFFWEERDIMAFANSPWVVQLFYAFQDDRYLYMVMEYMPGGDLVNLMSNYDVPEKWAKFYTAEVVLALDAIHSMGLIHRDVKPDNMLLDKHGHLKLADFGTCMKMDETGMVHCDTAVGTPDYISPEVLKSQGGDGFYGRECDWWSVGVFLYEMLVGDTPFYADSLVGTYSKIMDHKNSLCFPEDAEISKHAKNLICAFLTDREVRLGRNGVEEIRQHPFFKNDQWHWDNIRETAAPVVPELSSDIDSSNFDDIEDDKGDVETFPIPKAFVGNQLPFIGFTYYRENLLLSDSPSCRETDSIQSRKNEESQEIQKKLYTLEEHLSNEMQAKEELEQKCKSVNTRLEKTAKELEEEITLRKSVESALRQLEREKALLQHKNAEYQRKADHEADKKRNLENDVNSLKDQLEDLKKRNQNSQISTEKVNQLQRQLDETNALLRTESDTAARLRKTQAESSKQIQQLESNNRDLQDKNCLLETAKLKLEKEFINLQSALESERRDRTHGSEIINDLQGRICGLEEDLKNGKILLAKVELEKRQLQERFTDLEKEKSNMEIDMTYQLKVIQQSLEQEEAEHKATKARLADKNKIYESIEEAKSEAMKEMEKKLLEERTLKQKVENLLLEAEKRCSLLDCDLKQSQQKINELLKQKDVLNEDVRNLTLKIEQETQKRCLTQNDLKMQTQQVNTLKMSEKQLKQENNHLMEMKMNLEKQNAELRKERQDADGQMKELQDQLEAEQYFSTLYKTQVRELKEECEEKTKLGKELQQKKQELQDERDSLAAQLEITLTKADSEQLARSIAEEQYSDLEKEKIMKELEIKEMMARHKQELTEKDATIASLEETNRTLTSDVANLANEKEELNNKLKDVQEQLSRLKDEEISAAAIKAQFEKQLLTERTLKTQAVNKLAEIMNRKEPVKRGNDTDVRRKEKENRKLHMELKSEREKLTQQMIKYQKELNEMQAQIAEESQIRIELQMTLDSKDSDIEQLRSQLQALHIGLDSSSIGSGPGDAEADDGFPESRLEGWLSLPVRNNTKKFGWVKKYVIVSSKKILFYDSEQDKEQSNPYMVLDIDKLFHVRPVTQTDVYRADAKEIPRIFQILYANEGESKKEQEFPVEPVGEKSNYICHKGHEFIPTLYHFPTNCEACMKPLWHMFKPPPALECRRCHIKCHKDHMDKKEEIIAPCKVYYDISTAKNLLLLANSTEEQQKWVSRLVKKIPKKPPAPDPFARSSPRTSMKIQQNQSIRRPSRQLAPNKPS

activity towards GSKB (FIG. 10) [1]: can exert activity
IC50 [2]: 6.5 µM
SMILES: CCCCCCCCNN[C@H]1CC[C@H](C(=O)Nc2ccncc2)CC1.Cl.Cl [BA-1037, trans-4-[N′-(Octyl)hydrazino]-N-(4′″-pyridyl)cyclohexane Carboxamide Dihydrochloride]
cell proliferation, highest dose tested [3]: significantly blocked cell proliferation; also recorded: completely block proliferation
neurite growth by bioassay, normalized to BA-1016 (FIG. 7) [4]: equally well as BA-1016
cell proliferation, all three doses ([5]; 1 uM, 10 uM and 100 uM, versus DMSO and PBS controls, Dihydrochloride): significantly blocked cell proliferation; also recorded: reduce cell proliferation
cell proliferation, highest concentration tested ([5]; 100 uM): complete arrest of cell proliferation
